“Also recorded” adds a separate entry of the source.
Assays:
human neutrophils (PMN) = assay: Cholesterol-mediated Ca2+ influx in human PMN (fura-2 calcium spectrofluorometry); format: cell-based; conditions: for effect on cholesterol mediated Ca2+ influx (actin reorganization): Caly A 50 nM in cuvette, Cyto D pretreatment 2.5 uM 15 min, cholesterol 10 ug/ml; for effect of calcium channel blocker on cholesterol-mediated PMN calcium entry: dose response curves not shown
human PMN = assay: PAF mediated SOCE in human PMN; format: cell-based
PMN [1] = assay: Calcium-entry dependent respiratory burst (RB) initiated by fMLP/Tg in PMN; format: cell-based, human; conditions: for effect of cholesterol depletion on fMLP/Tg RB: MBCD 10 mM/10 min, fMLP/TG 100 nM/1 uM
TRPC1 = assay: Western blotting for TRPC1 in PMN raft fractions; format: cell-based, human; conditions: for global TRPC1 protein expression in whole cell lysates: 10 minutes exposure
Description: TRPC1 is a prototypic calcium channel protein of the TRP family. PMN express multiple TRPC proteins that are known to traffic to the cell membrane during Ca entry. We therefore studied TRPC1 raft-trafficking in response to cholesterol as an initial proof of principle that raft cholesterol concentration might regulate the distribution of multiple Ca^2+-influx related proteins to or from the cell membrane. We analyzed 20 μl of each gradient fraction by electrophoresis on a SDS gel followed by Western blotting for TRPC1 protein. The primary rabbit anti-human TRPC1 antibody (Santa Cruz) was used at 1:1,600 dilution. Secondary goat anti-rabbit antibody was used at 1:16,000 dilution. An ECL Western blotting detection kit was used to develop the blots which were imaged as above.
We therefore used Western blots to probe for TRPC1 in fractions 2-4 of pooled normal volunteer PMN fractionated with or without prior incubation in 10 μg/mL cholesterol (FIG. 26).
Subsequently, we sought to determine the source of the increased TRPC1 in the lipid raft fractions. Whole cell lysates from cholesterol treated and untreated cells were compared (not shown). […] Since the events leading to calcium entry are very rapid, later time points were not studied. Finally, we assayed TRPC1 in individual raft fractions from concurrently treated and analyzed PMN specimens (FIG. 27). […] Thus a redistribution of TRPC1 occurs in response to cholesterol treatment which appears to reflect trafficking of the protein to raft fractions rather than de novo synthesis.

PMN [2] = assay: Thapsigargin (TG) initiated Ca2+ entry in PMN; format: cell-based, human
Description: (§1) PMN were suspended in HEPES buffer with 1 mM CaCl2 and 0.1% BSA and incubated with 2 μg/mL fura-2AM for 30 minutes in the dark at 37° C. Cells were divided into aliquots (2×10^6 PMN) and placed on ice in the dark. Prior to study, samples were warmed to 37°, centrifuged (4500 RPM, 5 sec) and supernatants removed. Pellets were resuspended in 200 μl of BSA-free and ‘nominally calcium-free’ HEPES buffer (with 0.3 mM EGTA) and finally injected into cuvettes containing 2.8 mL of the same buffer for study. Intracellular free calcium concentration ([Ca2+]i) was determined from the fluorescence at 505 nm using 340/380 nm dual wavelength excitation. (Fluoromax-2, Jobin-SPEX, Edison, N.J.).
Since cholesterol had no discernable effect on ER Ca^2+ store release in response to PAF we examined the possibility that could play a direct role in the regulation of store-operated Ca^2+ entry; a Ca^2+ entry mechanism that is completely independent of GPCR activation. To study this we used thapsigargin (TG). TG blocks ER Ca^2+ ATPase pumps, thus depleting ER Ca^2+ stores directly and causing calcium entry independent of GPCR activation.

PMN [3] = assay: PMN calcium entry responses to S1P; format: cell-based, human
Description: To evaluate whether Ca^2+-entry responses to S1P were raft dependent, we then disrupted lipid rafts using MBCD to bind raft cholesterol.
as §1

PMN lipid rafts (GM-1) = assay: Immunofluorescent microscopy for GM-1 (FITC-CTB) in PMN rafts; format: cell-based, human; conditions: free cholesterol 10 μg/mL
PMN [4] = assay: fMLP-mediated Ca2+ entry in PMN; format: cell-based, human
Description: as §1
To confirm that the effects of cholesterol on GPCR mediated Ca^2+ entry were generalized and not restricted to PAF we evaluated the effects of cholesterol on fMLP-mediated Ca^2+ entry. Consistent with PAF, fMLP-linked Ca^2+ entry responses were suppressed by MβCD and augmented by cholesterol (FIG. 23, upper panel).

PMN lipid raft fractions = assay: Cholesterol content of PMN lipid raft fractions isolated by ultracentrifugation; format: cell-based, human; conditions: for ratio of cholesterol to protein / cholesterol concentration in the lowest density raft fractions: PMN pretreated, micromolar concentrations, absence of albumin; for change of cholesterol in raft fractions versus higher density fractions: cholesterol 10 μg/ml 10 minutes or MβCD 10 μM/10 min
Description: Lipid raft fractions were isolated by ultracentrifugation from PMN treated with S1P, cholesterol or buffer only (“none”). […] After isolation from 2-3 normal volunteer donors, 5×10^7 PMN were divided into aliquots. Aliquots were treated at 37° C. with 10 μg/ml water-soluble cholesterol for 10 minutes, MβCD (10 μM/10 min) or with vehicle. All steps thereafter were performed on ice. Cells were spun and pellets resuspended in 1 ml of base buffer (20 mM Tris-HCl pH 7.8, 250 mM Sucrose, 1 mM CaCl2 and 1 mM MgCl2) containing protease inhibitor and 50 μg/ml calpain inhibitor 1. Cells were disrupted by passage through a 22 g 3″ needle 10 times. Fragmented cells were sonicated 5×20 s, cooling the cells on ice between sonications. […] The cell pellets were resuspended in 1 ml base buffer with inhibitors and the sonication repeated. The two postnuclear supernatants were combined and an equal volume of 50% Optiprep added. […] Tubes were then centrifuged (52,000 g; 3 hours) and serial 670 μl fractions were collected from the top of the tube using careful pipetting. Protein in each fraction was assayed by micro BCA assay method (Pierce, Rockford Ill.). Cholesterol was assayed using an Amplex Red cholesterol assay kit (Molecular Probes). Alkaline phosphatase was assayed using p-nitrophenyl phosphate as substrate. […] No detergents were used in raft preparation.

PMN [5] = assay: Store-operated calcium entry (SOCE) initiated by fMLP and Tg in PMN; format: cell-based, human
Description: We hypothesized that calcium-entry dependent functions like RB would depend upon S1P synthesis and subsequent S1P interactions with rafts. Thus we developed a calcium-entry dependent RB model where Ca entry was manipulated by sphingosine kinase (SphK) inhibition, which inhibits S1P synthesis in response to internal calcium store release. […] Note that the vast majority of cell [Ca^2+] increases are due to calcium influx on re-calcifying the medium.
as §1

[6] = fMLP/Tg RB after pre-incubation

## COC[C@@H]([C@H](O)[C@H](O)C(=O)NCC[C@H](C)c1nc(/C=C/C[C@@H]2O[C@]3(C[C@@H](O)[C@@H]2C)O[C@H]([C@H](C[C@H](O)[C@H](C)[C@H](O)[C@H](C)/C=C(C)/C(C)=C/C=C/C(C)=C\C#N)OC)[C@H](OP(=O)(O)O)C3(C)C)co1)N(C)C [CalyA, Calyculin A]
Human neutrophils (PMN)
  effect on cholesterol mediated Ca2+ influx (actin reorganization): abolished

## CC(C)CCC[C@@H](C)[C@H]1CC[C@H]2[C@@H]3CC=C4C[C@@H](O)CC[C@]4(C)[C@H]3CC[C@]12C [cholesterol]
Human PMN; PAF 100 nM
  effect on release of Ca2+ from cell stores (PAF): no effect upon Ca^2+ store mobilization
Human PMN; normal PMN, brief exposure
  effect of cholesterol present in cuvette on PAF Ca2+ entry in normal cells: increased Ca^2+ entry
Human PMN; small amounts of cholesterol (3 ug/ml final)
  rescue of PAF Ca2+ entry by cholesterol after MβCD: rescued Ca^2+entry
PMN [1]; cholesterol 30 ug/ml
  rescue of RB by cholesterol in MBCD treated neutrophils: rescued RB from MβCD inhibition; also recorded: significantly rescued that RB
PMN [1]; [6]
  external cholesterol concentration yielding optimal PMN oxidant production: 10 µg/mL
  external cholesterol concentration yielding optimal PMN oxidant production (molar): ~25 µM
PMN [1]; pre-incubation, higher concentrations (FIG. 21B columns 6-7)
  effect of increasing (high) cholesterol concentrations on RB: decreased the degree of respiratory burst
PMN [1]; pre-incubation, lower concentrations (FIG. 21B columns 3-5)
  effect of lower cholesterol concentrations on RB: dose-dependent augmentation of RB
TRPC1
  global TRPC1 protein expression in whole cell lysates: No differences in global TRPC1 protein expression
TRPC1; pre-incubation in 10 μg/mL cholesterol
  TRPC1 protein in membrane lipid raft fractions: increases the amount of TRPC1 protein; also recorded: redistribution of the TRPC1 signal from higher density fractions into the raft fractions
PMN [2]
  reversal of MβCD inhibition of TG Ca2+ entry by cholesterol re-addition: immediately reversed and even overcome
PMN [3]; injured patients' PMN, cholesterol 30 ug/ml, n=8 PMN isolates
  effect of cholesterol on patient PMN calcium entry response to S1P: restored to healthy volunteer levels; also recorded: exceed basal levels
PMN [3]; n=3
  reversal of MβCD effect on S1P calcium entry by cholesterol replenishment: reversible; also recorded: reversal of the MβCD effect
Human neutrophils (PMN); above 10 μg/mL, direct stimulation and combination with S1P
  effect of cholesterol concentrations above 10 μg/mL on PMN Ca2+ uptake: suppress PMN Ca^2+ uptake
Human neutrophils (PMN); cholesterol 3 ug/ml final
  direct calcium entry caused by cholesterol at re-addition dose: does not itself cause calcium entry
Human neutrophils (PMN); free cholesterol, albumin-free media
  direct effect of cholesterol on calcium entry into human PMN: caused Ca entry without any antecedent release of calcium stores; also recorded: potent, dose-dependent activator; also recorded: direct dose-related response
PMN lipid rafts (GM-1)
  membrane GM-1 binding and raft coalescence: increased membrane GM-1 available for binding
PMN [4]
  effect on fMLP-linked Ca2+ entry responses: augmented
PMN [4]; very high cholesterol concentrations
  effect of very high cholesterol concentrations on fMLP-mediated Ca2+ entry: suppressed calcium entry
PMN lipid raft fractions
  ratio of cholesterol to protein / cholesterol concentration in the lowest density raft fractions: more than doubles
  change of cholesterol in raft fractions versus higher density fractions: incorporated preferentially into the low density fractions

## COc1ccc(CCCOC(Cn2ccnc2)c2ccc(OC)cc2)cc1 (centres unmarked) [SKF96365]
Human neutrophils (PMN); Neutrophil, human PMN, 3-4 experiments per condition, read-out: IC50 for block of cholesterol-mediated PMN calcium entry
  IC50: ~30 µM
Human neutrophils (PMN); human PMN
  effect of calcium channel blocker on cholesterol-mediated PMN calcium entry: inhibited
Human neutrophils (PMN); human PMN, listed as SKF
  effect of calcium channel blocker on cholesterol-mediated PMN calcium entry: quantitatively inhibited

## COc1ccc(CCN(C)CCCC(C#N)(c2ccc(OC)c(OC)c2)C(C)C)cc1OC (centres unmarked) [verapamil]
Human neutrophils (PMN); human PMN
  effect of calcium channel blocker on cholesterol-mediated PMN calcium entry: not inhibited; also recorded: no effect
Human neutrophils (PMN); human PMN, listed as VER
  effect of calcium channel blocker on cholesterol-mediated PMN calcium entry: no effect at any concentration

## methyl-β cyclodextrin [MβCD]
Human PMN; PAF 100 nM
  effect on release of Ca2+ from cell stores (PAF): no effect whatsoever
Human PMN; PAF 100 nM, MBCD 10 mM 10 minutes
  effect on PAF-initiated Ca2+ entry after cholesterol sequestration: blocked
PMN [1]
  effect of cholesterol depletion on fMLP/Tg RB: inhibited RB; also recorded: clear suppression of RB; also recorded: markedly suppressed RB responses
PMN [1]; listed as MBCD
  effect of cholesterol depletion on fMLP/Tg RB: blocks RB; also recorded: attenuated
TRPC1
  global TRPC1 protein expression in whole cell lysates: No differences in global TRPC1 protein expression
PMN [2]
  effect on TG initiated Ca2+ entry: markedly inhibited
PMN [3]; injured patients' PMN
  effect of MβCD on patient PMN Ca2+ entry responses to S1P: further suppressed
PMN [3]; n=3
  effect of raft disruption on PMN calcium entry responses to S1P: completely blocks calcium entry
PMN [3]; n=3, listed as MBCD
  effect of raft disruption on PMN calcium entry responses to S1P: completely blocked
PMN [4]
  effect on fMLP-linked Ca2+ entry responses: suppressed
PMN lipid raft fractions
  change of cholesterol in raft fractions versus higher density fractions: removed cholesterol from raft fractions

## CCCCCCCCCCCCC/C=C/[C@@H](O)[C@@H](N)COP(=O)(O)O [S1P, sphingosine 1-phosphate, reference compound]
PMN [1]; S1P 5 uM after SKI-2 30 uM
  rescue of RB after SKI-2 inhibition: rescue of RB
PMN [1]; n=4-6
  restoration of RB by S1P after MβCD cholesterol depletion: restored RB to control levels
PMN lipid raft fractions
  ratio of cholesterol to protein / cholesterol concentration in the lowest density raft fractions: increases in cholesterol concentration
PMN lipid raft fractions; listed as SIP
  ratio of cholesterol to protein / cholesterol concentration in the lowest density raft fractions: even greater increases in cholesterol concentration
PMN [5]; 5 M S1P, 30 μM SKI-2
  reversal of SKI-2 inhibition of SOCE by exogenous S1P: totally reversed; also recorded: reverses 30 μM SKI-2 inhibition

## [La+3] [La^3+, lanthanum]
Human neutrophils (PMN); 1 mM
  inhibition of cholesterol mediated PMN Ca2+ influx by lanthanum: inhibited; also recorded: almost totally inhibits

## C=C1[C@@H](C)[C@H]2[C@H](Cc3ccccc3)NC(=O)[C@]23[C@H](OC(C)=O)/C=C/[C@@](C)(O)C(=O)[C@@H](C)C/C=C/[C@H]3[C@@H]1O [CytoD, Cytochalasin D]
Human neutrophils (PMN)
  effect on cholesterol mediated Ca2+ influx (actin reorganization): reversed the inhibition

## Oc1ccc(Nc2nc(-c3ccc(Cl)cc3)cs2)cc1 [SKI-2]
PMN [1]; 30 uM, n=4
  effect of SphK inhibition on fMLP/Tg induced RB: blocked fMLP/Tg induced RB down to background levels
PMN [5]; fMLP 100 nM, Tg 1 uM
  effect on SOCE initiated by fMLP and Tg: inhibited; also recorded: suppressing SOCE

From patent US7879821B2, “Method for modulating inflammatory responses by altering plasma lipid levels” (University of Medicine and Dentistry of New Jersey, priority 2006, dated 2011)
